Experimental data reported in patent US11660290B2, “Affinity based drug release formulations” (McMaster University, priority 2016, dated 2023).

Tests used:
[1] = molecular target: Alexa-Fluor 488 streptavidin (Streptomyces avidinii, UniProt P22629); assay: Release study of fluorescent streptavidin from agarose-desthiobiotin hydrogels; details: for release of fluorescent streptavidin from the hydrogel (rate, in words): 1 wt % Ag-D gel, insoluble biotin derivative, PBS
Protocol: Ag-D was dissolved in 0.1M PBS at 2 wt %, Alexa-Fluor 488 streptavidin was subsequently added and the mixture was incubated at 37° C. for 2 h. […] Gels were cured at 4 C for 20 min to 1 hr and initial fluorescent readings of the gel were taken. 200 uL of PBS was subsequently dispensed overtop of the gels and collected and replenished at specific time intervals. The loss of fluorescence as well as the released fluorescent streptavidin was measured at specific time points (FIGS. 5B and 6).

HUVEC = tested on: HUVEC
Protocol: Additionally, toxicity studies were performed using the MTS assay using HUVEC, assessing the toxicity of the components of the drug delivery system as well as the complete drug delivery system (FIGS. 11 A and B).

[2] = Transparency of agarose hydrogels with solid suspension of oleylbiotin; format: physicochemical; details: solid suspension in agarose hydrogel

Alexa-Fluor 488 streptavidin, sequence (P22629 25-183): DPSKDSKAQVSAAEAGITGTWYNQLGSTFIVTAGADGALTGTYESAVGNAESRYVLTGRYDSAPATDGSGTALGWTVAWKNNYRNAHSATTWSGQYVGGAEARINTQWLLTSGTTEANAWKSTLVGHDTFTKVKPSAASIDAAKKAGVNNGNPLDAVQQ

Compound | release of fluorescent streptavidin from the hydrogel (rate, in words) [1] | toxicity of single components of the drug delivery system (HUVEC) | concentration that did not decrease the transparency of agarose gels [2] | time over which oleylbiotin concentration modulates the release of streptavidin ([1]; various oleylbiotin concentrations, system of Example 1) | duration of streptavidin release (extrapolation of preliminary experiments) ([1]; wild-type streptavidin)
Tert-butyl biotin | slower release | – | – | – | –
oleyl-biotin | slowest and longest release | None of the components display any inherent toxicity except for the solid suspension of oleylbiotin | ≤ 80 µM | at least 150 days | > 100 days
O=C(O)CCCC[C@@H]1SC[C@@H]2NC(=O)N[C@@H]21 [biotin, reference compound] | most rapid release | – | – | – | –
